Holding throughout (type): cell-based
Assay [1] has as its system NCI-H929 (multiple myeloma). The assay is described as follows: Inhibition of cell proliferation, CellTiter-Glo, NCI-H929. The settings on record: Homo sapiens, 72 h. In a few lines: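 Cells were grown in medium with 10% FBS at 37° C, 5% CO2. Cell number was read as CellTiter-Glo luminescence (cellular ATP), with untreated wells as control.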
(In general: ATP-based viability assays read luminescence as a measure of living cells.)

In a further assay the test system is COLO205 (colon). The assay is described as follows: Inhibition of cell proliferation, CellTiter-Glo, COLO205. The settings on record: Homo sapiens, COLO 205, 72 h. In a few lines:
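Exponentially growing COLO205 cells in medium with 10% FBS were plated below 2000 cells/well at 37 °C, 5% CO2. Untreated wells served as controls.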

For assay [2], the target named is T1, human IGF-1R (NIH-3T3 cells over expressing human IGF-1R) (Homo sapiens, UniProt P08069).
T1 construct: expressed in transfected cells; host or cells: NIH-3T3 (mouse fibroblasts)
T1 sequence (P08069 31-1367): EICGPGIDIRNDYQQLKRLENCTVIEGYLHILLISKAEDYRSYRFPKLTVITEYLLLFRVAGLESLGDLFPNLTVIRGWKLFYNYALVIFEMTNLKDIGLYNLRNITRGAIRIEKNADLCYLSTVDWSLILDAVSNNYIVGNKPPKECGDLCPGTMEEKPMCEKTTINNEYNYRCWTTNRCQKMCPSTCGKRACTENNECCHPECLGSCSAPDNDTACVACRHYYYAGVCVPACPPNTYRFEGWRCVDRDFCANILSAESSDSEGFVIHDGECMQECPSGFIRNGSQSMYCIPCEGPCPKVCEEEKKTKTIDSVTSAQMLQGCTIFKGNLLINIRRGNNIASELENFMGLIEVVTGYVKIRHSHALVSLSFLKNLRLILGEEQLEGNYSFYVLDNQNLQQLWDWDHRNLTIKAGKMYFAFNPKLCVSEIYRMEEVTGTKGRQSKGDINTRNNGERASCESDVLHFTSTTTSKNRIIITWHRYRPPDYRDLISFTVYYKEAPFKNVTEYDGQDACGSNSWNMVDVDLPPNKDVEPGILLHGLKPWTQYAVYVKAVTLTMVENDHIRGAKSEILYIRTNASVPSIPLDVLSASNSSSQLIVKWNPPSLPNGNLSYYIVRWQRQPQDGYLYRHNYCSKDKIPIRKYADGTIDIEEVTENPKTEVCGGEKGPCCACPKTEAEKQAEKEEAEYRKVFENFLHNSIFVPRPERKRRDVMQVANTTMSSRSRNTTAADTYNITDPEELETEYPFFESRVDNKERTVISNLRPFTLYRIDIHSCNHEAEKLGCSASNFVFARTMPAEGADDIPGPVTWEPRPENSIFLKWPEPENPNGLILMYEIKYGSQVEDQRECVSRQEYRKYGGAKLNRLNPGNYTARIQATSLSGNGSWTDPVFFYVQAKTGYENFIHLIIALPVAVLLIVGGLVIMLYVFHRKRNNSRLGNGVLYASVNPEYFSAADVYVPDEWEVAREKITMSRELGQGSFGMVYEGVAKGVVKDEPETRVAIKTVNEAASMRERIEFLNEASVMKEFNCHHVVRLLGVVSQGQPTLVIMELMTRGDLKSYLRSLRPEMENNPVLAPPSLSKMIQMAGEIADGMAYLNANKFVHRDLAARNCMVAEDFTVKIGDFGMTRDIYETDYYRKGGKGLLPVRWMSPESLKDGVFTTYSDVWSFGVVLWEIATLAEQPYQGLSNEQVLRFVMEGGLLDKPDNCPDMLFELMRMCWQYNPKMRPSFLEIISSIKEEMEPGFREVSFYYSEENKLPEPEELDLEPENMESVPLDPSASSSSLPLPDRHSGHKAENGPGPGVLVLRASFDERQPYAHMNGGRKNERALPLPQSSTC
The assay is described as follows: IGF-1R cellular autophosphorylation (DELFIA). Particulars: IGF-1 stimulated. In a few lines:
(§1)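 Readout: DELFIA on lysates, with anti-IGF-1R or anti-IR capture and europium anti-pTyr detection, expressed relative to 100% ligand-stimulated signal. Human IGF-1R- or IR-overexpressing NIH-3T3 cells got compound (1.5 nM–30 uM) for 2 h before 15 min IGF-1 (30 ng/mL) or insulin (3 ug/mL).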

Assay [3] has as its target T2, IR (NIH-3T3 cells over expressing human IGF-1R or IR) (Homo sapiens, UniProt P06213).
T2 construct: expressed in transfected cells; host or cells: NIH-3T3 (mouse fibroblasts)
The assay is described as follows: IR cellular autophosphorylation (DELFIA). Particulars: NIH-3T3 cells over expressing IR, insulin stimulated. In a few lines:
as §1

T2 sequence (P06213 28-1382): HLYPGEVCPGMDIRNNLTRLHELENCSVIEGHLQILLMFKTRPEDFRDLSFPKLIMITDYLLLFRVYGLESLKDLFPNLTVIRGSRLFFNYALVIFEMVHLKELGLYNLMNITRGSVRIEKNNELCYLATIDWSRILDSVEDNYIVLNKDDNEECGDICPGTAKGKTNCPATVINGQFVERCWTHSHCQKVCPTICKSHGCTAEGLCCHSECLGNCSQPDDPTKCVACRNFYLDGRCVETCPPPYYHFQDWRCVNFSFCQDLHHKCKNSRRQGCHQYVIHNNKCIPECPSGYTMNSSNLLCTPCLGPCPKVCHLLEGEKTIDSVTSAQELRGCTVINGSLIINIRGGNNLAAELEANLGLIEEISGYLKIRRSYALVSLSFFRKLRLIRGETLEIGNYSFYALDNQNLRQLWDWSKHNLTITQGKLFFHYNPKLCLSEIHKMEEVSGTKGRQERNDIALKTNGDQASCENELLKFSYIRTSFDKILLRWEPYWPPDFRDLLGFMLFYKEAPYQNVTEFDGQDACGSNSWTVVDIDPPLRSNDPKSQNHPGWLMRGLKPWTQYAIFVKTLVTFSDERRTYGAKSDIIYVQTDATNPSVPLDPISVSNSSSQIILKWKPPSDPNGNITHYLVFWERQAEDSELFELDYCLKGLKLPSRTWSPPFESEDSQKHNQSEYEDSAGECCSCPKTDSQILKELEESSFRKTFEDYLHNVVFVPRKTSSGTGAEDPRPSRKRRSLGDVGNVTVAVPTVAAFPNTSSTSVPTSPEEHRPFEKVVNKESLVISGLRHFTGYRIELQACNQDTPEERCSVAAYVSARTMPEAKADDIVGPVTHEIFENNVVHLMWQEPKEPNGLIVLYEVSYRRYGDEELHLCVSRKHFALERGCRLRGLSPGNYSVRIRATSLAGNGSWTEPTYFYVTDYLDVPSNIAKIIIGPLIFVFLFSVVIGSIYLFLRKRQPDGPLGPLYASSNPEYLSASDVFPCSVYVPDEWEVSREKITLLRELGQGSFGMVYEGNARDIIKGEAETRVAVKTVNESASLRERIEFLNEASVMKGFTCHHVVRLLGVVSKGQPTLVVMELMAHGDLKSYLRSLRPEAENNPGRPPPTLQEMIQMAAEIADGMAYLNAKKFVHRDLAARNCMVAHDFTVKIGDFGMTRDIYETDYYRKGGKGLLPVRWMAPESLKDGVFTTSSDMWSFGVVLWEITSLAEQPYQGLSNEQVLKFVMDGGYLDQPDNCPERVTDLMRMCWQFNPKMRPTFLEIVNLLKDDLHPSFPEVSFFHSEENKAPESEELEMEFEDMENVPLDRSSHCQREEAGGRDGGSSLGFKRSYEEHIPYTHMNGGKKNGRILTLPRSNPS

With `COc1cc(N2CCC(N3CCN(CCS(C)(=O)=O)CC3)CC2)ccc1Nc1nccc(-c2c(-c3ccc(OC)c(C(=O)Nc4c(F)cccc4F)c3)nc3ccccn23)n1` [Example 65, N-(2,6-difluorophenyl)-2-(methyloxy)-5-[3-(2-{[2-(methyloxy)-4-(4-{4-[2-(methylsulfonyl)-ethyl]-1-piperazinyl}-1-piperidinyl)phenyl]amino}-4-pyrimidinyl)imidazo-[1,2-a]pyridin-2-yl]benzamide], the IC50 in assay [1] was under 250 nM; in the assay on COLO205 (colon), 250 to 1000 nM; in assay [2], under 100 nM; in assay [3], under 100 nM.

Take `COc1cc(N2CCC(N3CCN(CCF)CC3)CC2)ccc1Nc1nccc(-c2c(-c3cccc(C(=O)Nc4c(F)cccc4F)c3)nc3cc(C(F)(F)F)ccn23)n1` [Example 189, N-(2,6-difluorophenyl)-3-[3-(2-{[4-{4-[4-(2-fluoroethyl)-1-piperazinyl]-1-piperidinyl}-2-(methyloxy)phenyl]amino}-4-pyrimidinyl)-7-(trifluoromethyl)imidazo[1,2-a]pyridin-2-yl]benzamide]: the half-inhibitory concentration (IC50) in assay [1] is 250 to 1000 nM; with COLO205 (colon), over 1000 nM; in assay [2], 100 to 500 nM; in assay [3] it was over 500 nM.

For the compound `COc1cc(N2CCC(N3CCN(CCF)CC3)CC2)ccc1Nc1nccc(-c2c(-c3cccc(C(=O)Nc4c(F)cccc4F)c3)nc3c(F)cccn23)n1` [Example 188, N-(2,6-difluorophenyl)-3-[8-fluoro-3-(2-{[4-{4-[4-(2-fluoroethyl)-1-piperazinyl]-1-piperidinyl}-2-(methyloxy)phenyl]amino}-4-pyrimidinyl)imidazo[1,2-a]pyridin-2-yl]benzamide], the IC50 was 250 to 1000 nM in assay [1], over 1000 nM in the assay with COLO205 (colon), under 100 nM in assay [2] and 100 to 500 nM in assay [3].

`CCOc1ccc(-c2nc3ccccn3c2-c2ccnc(Nc3ccc(N4CCN(S(C)(=O)=O)CC4)cc3OC)n2)cc1C(=O)Nc1c(F)cccc1F` [Example 232, N-(2,6-difluorophenyl)-2-(ethyloxy)-5-{3-[2-({2-(methyloxy)-4-[4-(methylsulfonyl)-1-piperazinyl]phenyl]amino)-4-pyrimidinyl]imidazo[1,2-a]pyridin-2-yl}benzamide]: the IC50 was under 250 nM in assay [1], under 250 nM with COLO205 (colon), under 100 nM in assay [2] and under 100 nM in assay [3].

In the case of `CCOc1cc(N2CCN(C(C)C)CC2)ccc1Nc1nccc(-c2c(-c3cccc(C(=O)Nc4c(F)cccc4F)c3)nc3ccccn23)n1` [Example 171, N-(2,6-difluorophenyl)-3-{3-[2-({2-(ethyloxy)-4-[4-(1-methylethyl)-1-piperazinyl]phenyl}amino)-4-pyrimidinyl]imidazo[1,2-a]pyridin-2-yl}benzamide], the IC50 in assay [1] is 250 to 1000 nM; in the assay on COLO205 (colon), 250 to 1000 nM; in assay [2], under 100 nM; in assay [3] it was under 100 nM.

With `COc1cc(N2CCC(N3CCN(S(C)(=O)=O)CC3)CC2)ccc1Nc1nccc(-c2c(-c3cccc(C(=O)Nc4c(F)cccc4F)c3)nc3c(C)cccn23)n1` [Example 68, N-(2,6-difluorophenyl)-3-(8-methyl-3-{2-[(2-(methyloxy)-4-{4-[4-(methylsulfonyl)-1-piperazinyl]-1-piperidinyl}phenyl)amino]-4-pyrimidinyl}imidazo[1,2-a]pyridin-2-yl)benzamide], the IC50 is 250 to 1000 nM in assay [1], 250 to 1000 nM with COLO205 (colon), 100 to 500 nM in assay [2] and 100 to 500 nM in assay [3].

As for `CCOc1ccc(-c2nc3ccccn3c2-c2ccnc(Nc3ccc(N4CCC(N5CCCCC5)CC4)c(C)c3OC)n2)cc1C(=O)Nc1c(F)cccc1F` [Example 56, 5-[3-(2-{[4-(1,4′-bipiperidin-1′-yl)-3-methyl-2-(methyloxy)phenyl]amino}-4-pyrimidinyl)imidazo[1,2-a]pyridin-2-yl]-N-(2,6-difluorophenyl)-2-(ethyloxy)benzamide], the IC50 is 250 to 1000 nM in assay [1], over 1000 nM in the assay on COLO205 (colon), 100 to 500 nM in assay [2] and 100 to 500 nM in assay [3].

Turning to `COc1cc(N2CCN(S(C)(=O)=O)CC2)c(C)cc1Nc1nccc(-c2c(-c3cccc(C(=O)Nc4c(F)cccc4F)c3)nc3ccccn23)n1` [Example 226, N-(2,6-difluorophenyl)-3-{3-[2-({5-methyl-2-(methyloxy)-4-[4-(methylsulfonyl)-1-piperazinyl]phenyl}amino)-4-pyrimidinyl]imidazo[1,2-a]pyridin-2-yl}benzamide], the IC50 in assay [1] is under 250 nM; in the assay on COLO205 (colon), under 250 nM; in assay [2] it was under 100 nM; in assay [3], under 100 nM.

As to `COc1cc(N2CCC(C3CCN(CCF)CC3)CC2)ccc1Nc1nccc(-c2c(-c3cccc(C(=O)Nc4c(F)cccc4F)c3)nc3ccccn23)n1` [Example 95, N-(2,6-difluorophenyl)-3-[3-(2-{[4-[1′-(2-fluoroethyl)-4,4′-bipiperidin-1-yl]-2-(methyloxy)phenyl]amino}-4-pyrimidinyl)imidazo[1,2-a]pyridin-2-yl]benzamide], the IC50 in assay [1] is 250 to 1000 nM; with COLO205 (colon) it was over 1000 nM; in assay [2], under 100 nM; in assay [3], 100 to 500 nM.

Consider `CCOc1cc(N2CCC(CCS(C)(=O)=O)CC2)c(C)cc1Nc1nccc(-c2c(-c3cccc(C(=O)Nc4c(F)cccc4F)c3)nc3ccccn23)n1` [Example 221, N-(2,6-difluorophenyl)-3-(3-{2-[(2-(ethyloxy)-5-methyl-4-{4-[2-(methylsulfonyl)ethyl]-1-piperidinyl}phenyl)amino]-4-pyrimidinyl}imidazo[1,2-a]pyridin-2-yl)benzamide], for which the IC50 is under 250 nM in assay [1], 250 to 1000 nM in the assay on COLO205 (colon), under 100 nM in assay [2] and under 100 nM in assay [3].

As to `COc1cc(N2CCC(N3CCN(CCS(C)(=O)=O)CC3)CC2)ccc1Nc1nccc(-c2c(-c3cccc(C(=O)Nc4c(F)cccc4F)c3)nc3c(F)cccn23)n1` [Example 193, N-(2,6-difluorophenyl)-3-[8-fluoro-3-(2-{[2-(methyloxy)-4-(4-{4-[2-(methylsulfonyl)ethyl]-1-piperazinyl}-1-piperidinyl)phenyl]amino}-4-pyrimidinyl)imidazo[1,2-a]pyridin-2-yl]benzamide], the half-inhibitory concentration (IC50) in assay [1] is under 250 nM; in the assay on COLO205 (colon) it was over 1000 nM; in assay [2], under 100 nM; in assay [3] it was 100 to 500 nM.

In the case of `COc1cc(N2CCC(N3CCCCC3)CC2)ccc1Nc1nccc(-c2c(-c3cccc(C(=O)Nc4c(F)cccc4F)c3)nc3cc(F)ccn23)n1` [Example 195, 3-[3-(2-{[4-(1,4′-bipiperidin-1′-yl)-2-(methyloxy)phenyl]amino}-4-pyrimidinyl)-7-fluoroimidazo[1,2-a]pyridin-2-yl]-N-(2,6-difluorophenyl)benzamide], the IC50 in assay [1] is 250 to 1000 nM; with COLO205 (colon), 250 to 1000 nM; in assay [2] it was under 100 nM; in assay [3], under 100 nM.

With `CCc1cc(Nc2nccc(-c3c(-c4cccc(C(=O)Nc5c(F)cccc5F)c4)nc4ccccn34)n2)c(OC)cc1N1CCC(N2CCN(S(C)(=O)=O)CC2)CC1` [Example 244, N-(2,6-difluorophenyl)-3-(3-{2-[(5-ethyl-2-(methyloxy)-4-{4-[4-(methylsulfonyl)-1-piperazinyl]-1-piperidinyl}phenyl)amino]-4-pyrimidinyl}imidazo[1,2-a]pyridin-2-yl)benzamide], the IC50 was 250 to 1000 nM in assay [1], 250 to 1000 nM in the assay on COLO205 (colon), under 100 nM in assay [2] and under 100 nM in assay [3].

Turning to `COc1cc(N2CCC(C3CCN(CCS(C)(=O)=O)CC3)CC2)ccc1Nc1nccc(-c2c(-c3ccc(OC)c(C(=O)Nc4c(F)cccc4F)c3)nc3ccccn23)n1` [Example 98, N-(2,6-difluorophenyl)-2-(methyloxy)-5-(3-{2-[(2-(methyloxy)-4-{1′-[2-(methylsulfonyl)ethyl]-4,4′-bipiperidin-1-yl}phenyl)amino]-4-pyrimidinyl}imidazo[1,2-a]pyridin-2-yl)benzamide], the IC50 is 250 to 1000 nM in assay [1], 250 to 1000 nM in the assay on COLO205 (colon), under 100 nM in assay [2] and under 100 nM in assay [3].

`CC(C)Cc1cc(N2CCC(N3CCCCC3)CC2)ccc1Nc1nccc(-c2c(-c3cccc(C(=O)Nc4c(F)cccc4F)c3)nc3ccccn23)n1` [Example 42, 3-[3-(2-{[4-(1,4′-bidideridin-1′-yl)-2-(2-methylpropyl)phenyl]amino}-4-pyrimidinyl)imidazo[1,2-a]pyridin-2-yl]-N-(2,6-difluorophenyl)benzamide]: the IC50 in assay [1] was over 1000 nM; in the assay with COLO205 (colon), over 1000 nM; in assay [2] it was under 100 nM; in assay [3], over 500 nM.

For the compound `COc1c(Nc2nccc(-c3c(-c4cccc(C(=O)Nc5c(F)cccc5F)c4)nc4ccccn34)n2)ccc(N2CCC(N3CCCCC3)CC2)c1C` [Example 54, 3-[3-(2-{[4-(1,4′-bipiperidin-1′-yl)-3-methyl-2-(methyloxy)phenyl]amino}-4-pyrimidinyl)imidazo[1,2-a]pyridin-2-yl]-N-(2,6-difluorophenyl)benzamide], the IC50 is over 1000 nM in assay [1], over 1000 nM in the assay with COLO205 (colon), over 500 nM in assay [2] and over 500 nM in assay [3].

By IC50 is commonly meant the concentration at which inhibition is half-maximal. A high value points to weaker potency.

The record behind these values is patent publication US20100216779A1 (GLAXOSMITHKLINE LLC, priority 2007, published 2010).
